Measured values taken from ChEMBL document CHEMBL1148279, “Effects of bisphosphonates on the growth of Entamoeba histolytica and Plasmodium species in vitro and in vivo” (J Med Chem, 2004).

How the values were obtained:
[1] = in vitro; conditions: human, KB cells (nasopharyngeal carcinoma)
Description: Toxicity evaluated against human nasopharyngeal carcinoma KB cell line

[2] = system: Entamoeba histolytica; assay: In vitro growth inhibition against Entamoeba histolytica; assay type: functional, organism-based
[3] = system: Plasmodium falciparum; assay: microbe, parasite or virus in culture
Description: In vitro growth inhibition against Plasmodium falciparum

[4] = system: Mus musculus; assay: Mean reduction in parasitaemia of Plasmodium berghei ANKA suppressive test in mice (Mus musculus) (in vivo) at 25 mg/kg scheduled for 4 days; assay type: functional
[5] = Inhibitory activity against Entamoeba histolytica pyrophosphate-dependent phosphofructokinase (PFK) (Range is 600-1200); assay type: functional

SMILES: CCCCCC(O)(P(=O)(O)O)P(=O)(O)O
- CC50 [1]: > 993 µM
- IC50 [2]: 157 µM
- IC50 [3]: 5.53 µM
- Reduction [4]: 80%
- IC50 [5]: 1200 µM
